Series [1] has as its system Rattus norvegicus. As to conditions: for LD50 / LC50: acute.
The test system of series [2] is Rattus norvegicus. As to conditions: oral, M/F; for NOAEL: gavage.
Where [3] appears, read: reproduction developmental, duration: 83 days, oral, gavage, Sprague-Dawley.
Setting [4] is: short-term, duration: 28 days, oral, gavage, Wistar.
The mark [5] stands for this setting: subchronic, duration: 90 days, oral, diet.
Setting [6] is: reproduction developmental, duration: 7 days, oral, gavage, F, CD Strain from Charles River.

Values joined by “and” are separate entries in the source; they are usually repeats but may differ in a detail not shown here. Identical values can stand only once.

The values below come from EPA's ToxValDB 9.5.

In the series with Rattus norvegicus [1] (oral, gavage, Wistar), `CCCCCCCC/C=C\CCCCCCCC(=O)OC[C@@H](OC(=O)CCCCCCC/C=C\CCCCCCCC)[C@H]1OC[C@H](O)[C@H]1OC(=O)CCCCCCC/C=C\CCCCCCCC` [Sorbitan trioleate] showed an LD50 of over 39800 mg/kg.
As for `NC(=O)c1cccnc1` [Niacinamide], in the series on Rattus norvegicus [2] (short-term, duration: 28 days, Wistar, Body Weight Changes: decrease + Food Consumption: decrease + Blood Chemistry: AST increase, ALT increase, T-Cho increase, ALP increase, BUN …), the NOAEL was 215 mg/kg-day.
For the compound `CC(C)(c1ccccc1)c1ccc(Nc2ccc(C(C)(C)c3ccccc3)cc2)cc1`, the LC50 in the series on Rattus norvegicus [1] (oral, gavage) was over 10000 mg/kg.
Turning to `Cl.Nc1ccccc1-c1ccccc1` [2-Biphenylamine hydrochloride], the NOEL in the series with Rattus norvegicus [2] (subchronic, duration: 13 weeks, diet, Fischer 344, Histopathology: Spleen-Congestion Spleen-Extramedullary hematopoiesis Spleen-Hemosiderosis Spleen-Thickened capsule Spleen-Lymphoid atrophy …) is 28.8 mg/kg-day.
For `CC(C)OC(=O)C(C)(C)Oc1ccc(C(=O)c2ccc(Cl)cc2)cc1` [Fenofibrate], the NOAEL with Rattus norvegicus [2] (chronic, duration: 91 days, CD, Body Weight Changes: decrease + Food Consumption: decrease + Urinalysis: WBCEpithelial cell + Hematology: RBC decrease, HCT decrease, HGB …) is 5 mg/kg-day.
For the compound `CCCCCCC(C)(C)C(=O)OCC1CO1` (stereo not drawn) [Glycidyl neodecanoate], the LD50 in the series with Rattus norvegicus [1] (dermal, Wistar) is over 4000 mg/kg; with Rattus norvegicus [1] (oral, gavage, Wistar) it was over 10000 mg/kg.
Consider `CC(C)N.CCCCCCCCCC(CC)c1ccc(S(=O)(=O)O)cc1` (stereo not drawn) [Isopropylammonium dodecylbenzenesulfonate], for which the LD50 came to 1840 mg/kg with Rattus norvegicus [1] (oral) and 1300 mg/kg in the series with Rattus norvegicus [1] (oral, gavage, Sprague-Dawley).
`CC(C)(CO)CO` [2,2-Dimethylpropane-1,3-diol]: the LD50 with Rattus norvegicus [1] (oral) amounted to 3200 mg/kg. Moreover, the NOAEL with Rattus norvegicus [1] (reproduction developmental, oral, Sprague-Dawley, generation: F0) stood at 1000 mg/kg-day; in the series with Rattus norvegicus [1] (reproduction developmental, oral, Sprague-Dawley, generation: F1), 1000 mg/kg-day; in the series on Rattus norvegicus [1] (reproduction developmental, oral, gavage, Sprague-Dawley), 100 mg/kg-day; in the series with Rattus norvegicus [1] (short-term, duration: 2 weeks, oral, gavage, Wistar), 1000 mg/kg-day.
Turning to `CCC(C)(N)C#N` (stereo not drawn) [2-Amino-2-methyl-butyronitrile], the LC50 in the series on Rattus norvegicus [1] (inhalation, Crl:CD(SD) BR) was 430 mg/m3 and 446 mg/m3 and 417 mg/m3. The LD50 with Rattus norvegicus [1] (oral, gavage, Sprague-Dawley) stood at 74 mg/kg.
In the series with Rattus norvegicus [1] (setting [3]), `CCCCCCCCC(=O)Oc1ccccc1S(=O)(=O)[O-].[Na+]` [Sodium (nonanoyloxy)benzenesulfonate] registered an LOAEC of 100 mg/kg-day and an NOAEL of 1000 mg/kg-day.
`CCCCCCCCCCOC1CCS(=O)(=O)C1` (stereo not drawn) [Thiophene, 3-(decyloxy)tetrahydro-, 1,1-dioxide] came in with an NOAEL with Rattus norvegicus [1] (short-term, duration: 28 days, oral, gavage, M, Sprague-Dawley) of 100 mg/kg-day.
As to `CC(C)(C)c1cccc(C(C)(C)C)c1O` [2,6-Di-tert-butylphenol], the 50% lethal dose (LD50) in the series with Rattus norvegicus [1] (oral, gavage) is 6290 mg/kg; in the series on Rattus norvegicus [1] (oral, gavage, Sprague-Dawley) it was over 5000 mg/kg. The no-observed-adverse-effect level (NOAEL) in the series with Rattus norvegicus [1] (developmental, oral, gavage, Wistar) is over 750 mg/kg-day; with Rattus norvegicus [1] (reproduction developmental, oral, gavage, Wistar) it was 150 mg/kg-day; in the series on Rattus norvegicus [1] (setting [4]) it was 15 mg/kg-day.
On to `Clc1nc(Cl)c(Cl)c(Cl)c1Cl` [Pentachloropyridine], for which, in the series with Rattus norvegicus [1] (oral, gavage, Fischer 344), the LD50 turned out to be 435 mg/kg. Moreover, the NOAEL in the series with Rattus norvegicus [1] (reproduction developmental, duration: 15 days, oral, gavage, F, Sprague-Dawley) is 50 mg/kg-day. In the series on Rattus norvegicus [1] (setting [5]), this compound displayed an LOAEL of 30 mg/kg-day and an NOAEL of 10 mg/kg-day.
Take `NCCCCCCN` [1,6-Hexanediamine]: in the series with Rattus norvegicus [1] (inhalation, Crl), the LC50 was over 0.95 mg/L. Besides, in the series on Rattus norvegicus [1] (oral, gavage, Crl:CD(SD)), the LD50 is 1130 mg/kg and 792 mg/kg. Further, the LOAEL in the series on Rattus norvegicus [1] (developmental, duration: 7 days, oral, gavage, CD Strain from Charles River) was determined as 184 mg/kg-day; with Rattus norvegicus [1] (setting [6]), 184 mg/kg-day. The no-observed-adverse-effect level (NOAEL) amounted to 150 mg/kg-day in the series with Rattus norvegicus [1] (reproduction developmental, duration: 40 weeks, oral, diet, Charles River COBS CD, Portage Michigan); 112 mg/kg-day in the series on Rattus norvegicus [1] (setting [6]); 12.8 mg/m3 in the series on Rattus norvegicus [1] (subchronic, duration: 13 weeks, Inhalation, Crl:CD(SD)).
As for `CC(C)(C)c1cc(CCC(=O)NNC(=O)CCc2cc(C(C)(C)C)c(O)c(C(C)(C)C)c2)cc(C(C)(C)C)c1O`, the LD50 in the series on Rattus norvegicus [1] (oral) was over 7000 mg/kg. Also, the NOAEL in the series with Rattus norvegicus [1] (short-term, duration: 28 days, oral, diet) was over 10000 ppm; in the series with Rattus norvegicus [1] (subchronic, duration: 3 months, oral, diet), 38.4 mg/kg-day.
As to `O=P(CCCl)(OCCCl)OCCCl` [Bis(2-chloroethyl) 2-chloroethylphosphonate], the LD50 in the series with Rattus norvegicus [1] (oral, gavage, Sprague-Dawley) is 580 mg/kg and 810 mg/kg. Also, the no-observed-adverse-effect level (NOAEL) in the series with Rattus norvegicus [1] (developmental, duration: 14 days, oral, gavage, Sprague-Dawley) is at most 600 mg/kg-day; in the series with Rattus norvegicus [1] (reproduction developmental, duration: 14 days, oral, gavage, F, Sprague-Dawley), 400 mg/kg-day.
With `CCCCCCC(=O)OCCOCCOCCOCCOC(=O)CCCCCC` [Tetraethylene glycol diheptanoate], the median lethal dose (LD50) in the series on Rattus norvegicus [1] (oral, gavage, ChR:CD) is over 25000 mg/kg; in the series on Rattus norvegicus [1] (oral, gavage, ChRCD) it was over 25000 mg/kg; in the series with Rattus norvegicus [1] (oral, gavage, Crl:CD(SD)), over 24500 mg/kg; in the series with Rattus norvegicus [1] (oral, gavage, Wistar), over 2000 mg/kg. This compound showed an LOAEL in the series on Rattus norvegicus [1] (short-term, duration: 4 weeks, inhalation, Wistar) of 1.1 mg/L. This compound registered an NOAEL in the series on Rattus norvegicus [1] (setting [4]) of 1000 mg/kg-day.
Regarding `CC(=O)O.CC(C)CCCCCCCOCCCN` [1-Propanamine, 3-(isodecyloxy)-, acetate], the LD50 with Rattus norvegicus [1] (oral, gavage, Sprague-Dawley) was 1030 mg/kg and 1460 mg/kg and 1220 mg/kg.

In general, LD50 refers to the dose at which mortality reaches 50%. High values mean a less toxic substance, low ones a more toxic substance. One may read the NOAEL as the highest dose or exposure tested at which no adverse effect was seen. The term LOAEL denotes the lowest dose or exposure tested at which an adverse effect was seen.
